From patent US11578074B2, “Nitrogenous heterocyclic compound, preparation method, intermediate, composition, and application” (SHANGHAI PHARMACEUTICALS HOLDING CO., LTD., priority 2017, dated 2023)

What was measured:
ErbB2 kinase = biological target: T1, ErbB2 kinase (Homo sapiens, UniProt P04626); test: EGFR/ErbB2 enzymatic experiment (HTRF kinEASE-TK), ErbB2; assay type: biochemical; conditions: ErbB2 kinase 0.06 ng/μL, ATP 4 μM; read-out: Kinase IC50 (nM) in vitro ErbB2
T1 construct: The final concentration of ErbB2 kinase was 0.06 ng/μL
Method: (§1) EGFR/ErbB2 Enzymatic Experiment
(§2) Firstly, 1× reaction buffer required for the kinase was prepared, then 5× Enzymatic buffer (HEPES 20 mM pH 7.0, NaN3 0.1%, BSA 0.05%, sodium orthovanadate 0.5 mM) was diluted in HTRF kinEASE-TK kit by 1 time with deionized water, and 50 nM Supplement Enzymatic buffer (SEB REAGENT), 1 mM MnCl2, 5 mM MfCl2, 1 mM DTT were added. Secondly, 5× compound was prepared, and 10 mM test compound storage solution was diluted in multiple steps with DMSO in a 96-well compound plate to prepare 100× compound as an initial concentration, which was then used as the first concentration to carry out a 3-fold gradient dilution with DMSO to obtain a total of 10 concentrations. Then 1 μL of gradient diluent was added to 19 μL of 1× reaction buffer to prepare 5× compound for later use. Then 2 μL of 5× compound was transferred from the 96-well plate into a 384-well plate. To the compound-free control wells was added 2 μL of the following liquid: 19 μL of 1× reaction buffer with addition of 1 μL of DMSO. To the blank control well was added 2 μL of 250 mM EDTA. […] In the fourth step of reaction termination, HTRF Detection buffer was used to prepare a mixture of 2×TK Antibody-EU (K) and Sa-XL665, and the amount of TK Antibody-EU (K) was 5 μL per well. After the enzyme reaction was carried out for 30 minutes, 10 μL of the above liquid was added to a 384-well plate, and the reaction was carried out at room temperature for 1 hour. […] RFU665 nM and RFU620 nM were measured, and RFU665 nM/RFU620 nM×10000 was used as final data for analysis.

[1] = test system: N87 (human gastric cancer cell NCI-N87); test: In vitro proliferation inhibition assay of cell lines (CellTiter-Glo), N87; assay type: cell-based; conditions: N87 cells, 72 hours
Method: (§3) In Vitro Proliferation Inhibition Assay of Cell Lines
(§4) 1. Cell culture and inoculation: on the first day of the experiment, normal cultured cells were taken, and in the exponential growth state, after digestion and dispersion, the cell density was then adjusted to 8.8×10^4 cells/mL for BT-474, and 6.6×10^4 cells/mL for N87, and 90 μL of which were inoculated to each well of a 96-well cell culture plate; after the inoculation was completed, the microplate was cultured under the conditions of 37° C. and 5% CO2 overnight. 2. Dosing to the cells: on the second day of the experiment, the microplate was taken out from the incubator, and 10 μL of 10× compound was added to each well of the microplate, setting 2 duplicate wells for each drug concentration and 9 dosing concentrations for each compound. According to different cell lines, the initial concentration of each compound was different. Upon completion of addition, the microplate was placed under the conditions of 37° C. and 5% CO2 for 72 hours. 3. Data acquisition: the microplate was taken out from the incubator and was allowed to equilibrate at room temperature for 30 minutes. 100 μL of CellTiter-Glo® Luminescent Cell Viability Assay reaction solution which had been equilibrated at room temperature was added to each well, and the reaction solution was shaken at 1300 rpm for 2 minutes at room temperature. After that, the microplate was placed in HERAEUS Multifuge X1R centrifuge, centrifuged at 2000 rpm for 1 minute, and allowed to equilibrate at room temperature for 10 minutes. The fluorescence signal value was measured on EnVision™.

[2] = test system: BT-474 (human breast cancer cell); test: In vitro proliferation inhibition assay of cell lines (CellTiter-Glo), BT-474; assay type: cell-based; conditions: BT-474 cells, 72 hours
Method: as §3
as §4, with “Cell culture and inoculation: on the first day of the experiment, normal cultured cells were taken, and in the exponential growth state, after digestion and dispersion, the cell density was then adjusted to 8.8×10^4 cells/mL for BT-474, and 6.6×10^4 cells/mL for N87, and 90 μL of which were inoculated to each well of a 96-well cell culture plate; after the inoculation was completed, the microplate was cultured under the conditions of 37° C. and 5% CO2 overnight.” left out

EGFR kinase = EGFR kinase (Homo sapiens, UniProt P00533); test: EGFR/ErbB2 enzymatic experiment (HTRF kinEASE-TK), EGFR; assay type: biochemical; conditions: EGFR kinase 0.06 units/μL, ATP 1.65 μM; read-out: Kinase IC50 (nM) in vitro EGFR
Method: as §1, §2

T1 sequence (P04626 23-1255): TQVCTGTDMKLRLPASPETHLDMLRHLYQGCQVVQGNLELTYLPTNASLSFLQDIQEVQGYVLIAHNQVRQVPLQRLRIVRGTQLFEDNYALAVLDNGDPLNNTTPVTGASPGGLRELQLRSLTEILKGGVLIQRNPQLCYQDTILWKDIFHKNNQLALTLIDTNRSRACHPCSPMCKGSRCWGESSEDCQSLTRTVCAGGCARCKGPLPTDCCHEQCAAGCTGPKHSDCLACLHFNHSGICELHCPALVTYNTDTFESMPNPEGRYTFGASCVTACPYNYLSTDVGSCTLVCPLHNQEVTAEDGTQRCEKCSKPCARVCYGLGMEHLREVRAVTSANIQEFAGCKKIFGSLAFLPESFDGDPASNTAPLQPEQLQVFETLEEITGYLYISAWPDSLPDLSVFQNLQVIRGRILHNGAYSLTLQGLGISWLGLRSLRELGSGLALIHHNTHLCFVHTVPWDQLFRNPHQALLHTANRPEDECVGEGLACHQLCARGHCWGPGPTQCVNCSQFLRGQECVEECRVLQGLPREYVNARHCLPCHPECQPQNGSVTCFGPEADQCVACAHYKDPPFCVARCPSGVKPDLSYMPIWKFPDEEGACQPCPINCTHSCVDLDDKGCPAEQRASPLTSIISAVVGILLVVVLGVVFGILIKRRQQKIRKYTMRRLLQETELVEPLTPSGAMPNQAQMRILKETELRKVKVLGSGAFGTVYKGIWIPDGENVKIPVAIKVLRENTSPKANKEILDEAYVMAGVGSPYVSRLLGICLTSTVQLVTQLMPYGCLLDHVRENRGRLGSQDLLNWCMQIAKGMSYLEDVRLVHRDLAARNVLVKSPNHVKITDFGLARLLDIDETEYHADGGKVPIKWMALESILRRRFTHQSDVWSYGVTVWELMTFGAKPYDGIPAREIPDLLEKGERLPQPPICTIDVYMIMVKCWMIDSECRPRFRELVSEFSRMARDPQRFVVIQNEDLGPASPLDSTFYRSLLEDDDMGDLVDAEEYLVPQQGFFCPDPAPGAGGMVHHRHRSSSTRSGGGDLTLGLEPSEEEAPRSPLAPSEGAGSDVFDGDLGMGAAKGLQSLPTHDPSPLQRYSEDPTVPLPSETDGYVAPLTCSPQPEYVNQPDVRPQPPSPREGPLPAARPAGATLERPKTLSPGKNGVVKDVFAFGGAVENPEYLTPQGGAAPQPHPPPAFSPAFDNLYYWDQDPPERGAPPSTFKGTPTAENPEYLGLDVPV
Sequence of EGFR kinase (P00533 25-1210): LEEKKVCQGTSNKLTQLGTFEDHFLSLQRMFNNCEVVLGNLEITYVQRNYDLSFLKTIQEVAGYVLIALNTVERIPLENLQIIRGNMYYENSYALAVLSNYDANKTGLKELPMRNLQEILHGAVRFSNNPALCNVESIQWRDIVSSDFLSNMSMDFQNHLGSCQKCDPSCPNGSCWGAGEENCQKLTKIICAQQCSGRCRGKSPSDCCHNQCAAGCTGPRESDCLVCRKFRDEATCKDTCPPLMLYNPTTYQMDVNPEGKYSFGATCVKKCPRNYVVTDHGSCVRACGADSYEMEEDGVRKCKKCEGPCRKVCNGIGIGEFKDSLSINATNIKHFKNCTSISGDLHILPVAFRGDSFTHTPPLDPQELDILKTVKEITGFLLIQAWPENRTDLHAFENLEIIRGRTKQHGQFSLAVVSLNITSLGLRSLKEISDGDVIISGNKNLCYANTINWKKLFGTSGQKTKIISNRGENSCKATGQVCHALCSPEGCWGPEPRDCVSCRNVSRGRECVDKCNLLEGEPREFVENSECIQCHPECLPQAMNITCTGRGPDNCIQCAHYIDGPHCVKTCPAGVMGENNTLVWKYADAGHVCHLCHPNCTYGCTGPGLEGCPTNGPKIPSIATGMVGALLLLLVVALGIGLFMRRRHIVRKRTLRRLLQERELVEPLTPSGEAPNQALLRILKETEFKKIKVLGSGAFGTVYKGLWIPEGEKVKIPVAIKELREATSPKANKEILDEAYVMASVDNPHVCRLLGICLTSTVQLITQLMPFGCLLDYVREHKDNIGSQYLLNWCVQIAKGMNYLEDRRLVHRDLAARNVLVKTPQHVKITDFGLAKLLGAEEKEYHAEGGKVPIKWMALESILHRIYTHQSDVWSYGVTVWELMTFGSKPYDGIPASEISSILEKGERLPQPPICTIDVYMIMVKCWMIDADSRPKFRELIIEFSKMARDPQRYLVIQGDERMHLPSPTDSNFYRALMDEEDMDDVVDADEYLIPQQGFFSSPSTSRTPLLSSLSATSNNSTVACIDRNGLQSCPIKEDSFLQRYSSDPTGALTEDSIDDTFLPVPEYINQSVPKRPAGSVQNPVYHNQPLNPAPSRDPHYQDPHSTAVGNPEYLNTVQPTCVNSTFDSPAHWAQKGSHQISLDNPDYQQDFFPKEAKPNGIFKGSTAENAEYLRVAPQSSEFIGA

SMILES: COCCOc1cc2ncnc(Nc3ccc(Oc4cc5nncn5cn4)c(C)c3)c2cc1NC(=O)/C=C/[C@H]1CCCN1C [Final product of Embodiment 36]
- IC50 (ErbB2 kinase): 1.1 nM
- IC50 [1]: 1.64 nM
- IC50 [2]: 1.89 nM
- IC50 (EGFR kinase): 0.53 nM

SMILES: COCCOc1cc2ncnc(Nc3ccc(Oc4cc5nncn5cn4)c(C)c3)c2cc1NC(=O)/C=C/[C@H]1CCCN1 [Final product of Embodiment 35]
- IC50 (ErbB2 kinase): 2.67 nM
- IC50 [1]: 18.9 nM
- IC50 [2]: 17.7 nM
- IC50 (EGFR kinase): 0.514 nM

SMILES: Cc1cc(Nc2ncnc3ccc(NC(=O)/C=C/C4COCCN4)cc23)ccc1Oc1cc2nncn2cn1 (stereo not shown) [Final product of Embodiment 27, (E)-N-(4-((4-([1,2,4]triazolo[4,3-c]pyrimidin-7-yloxy)-3-methylphenyl)amino)quinazolin-6-yl)-3-(morpholin-3-yl)acrylamide]
- IC50 (ErbB2 kinase): 1.61 nM
- IC50 [1]: 77.5 nM
- IC50 [2]: 25.7 nM
- IC50 (EGFR kinase): 2.21 nM

SMILES: Cc1cc(Nc2ncnc3ccc(NC(=O)/C=C/[C@H]4CCCN4C)cc23)ccc1Oc1ccc2nc[nH]c2c1
- IC50 (ErbB2 kinase): 0.689 nM
- IC50 [1]: 22.6 nM
- IC50 [2]: 15.4 nM
- IC50 (EGFR kinase): 1.5 nM

SMILES: Cc1cc(Nc2c(C#N)cnc3ccc(NC(=O)/C=C/[C@H]4CCCN4)cc23)ccc1Oc1cc2nncn2cn1 [Final product of Embodiment 21, (R,E)-N-(4-((4-([1,2,4]triazolo[4,3-c]pyrimidin-7-yloxy)-3-methylphenyl)amino)-3-cyanoquinolin-6-yl)-3-(pyrrolidin-2-yl)acrylamide]
- IC50 (ErbB2 kinase): 8.25 nM
- IC50 [1]: 94 nM
- IC50 [2]: 54.6 nM
- IC50 (EGFR kinase): 3.46 nM

SMILES: CCOc1cc2ncc(C#N)c(Nc3ccc(OCc4ccccn4)c(Cl)c3)c2cc1NC(=O)/C=C/[C@H]1CCCN1C [drawing 239, reference compound]
- IC50 (ErbB2 kinase): 1.67 nM
- IC50 [1]: 1.2 nM
- IC50 [2]: 2.56 nM

SMILES: Cc1cc(Nc2ncnc3ccc(NC(=O)/C=C/[C@@H]4CCCN4C)cc23)ccc1Oc1cc2nncn2cn1 [Final product of Embodiment 1-97, (S,E)-N-(4-((4-([1,2,4]triazolo[4,3-c]pyrimidin-7-yloxy)-3-methylphenyl)amino)quinazolin-6-yl)-3-(1-methylpyrrolidin-2-yl)acrylamide]
- IC50 [1]: 10 nM

SMILES: CCOc1cc2ncc(C#N)c(Nc3ccc(OCc4ccccn4)c(Cl)c3)c2cc1NC(=O)/C=C/CN(C)C [drawing 240, reference compound]
- IC50 [1]: 0.82 nM

SMILES: Cc1cc(Nc2ncnc3ccc(/C=C/C(=O)NC4CC4)cc23)ccc1Oc1cc2nncn2cn1 [Final product of Embodiment 16, (E)-3-(4-((4-([1,2,4]triazolo[4,3-c]pyrimidin-7-yloxy)-3-methylphenyl)amino)quinazolin-6-yl)-N-cyclopropylacrylamide]
- IC50 (ErbB2 kinase): 22 nM
- IC50 [1]: 692 nM
- IC50 [2]: 256 nM
- IC50 (EGFR kinase): 33.7 nM

SMILES: Cc1cc(Nc2ncnc3ccc(NC(=O)/C=C/[C@H]4CCCN4C)cc23)ccc1Oc1ccn2cnnc2c1 [Final product of Embodiment 25]
- IC50 (ErbB2 kinase): 8.47 nM
- IC50 [1]: 68.2 nM
- IC50 [2]: 50.7 nM
- IC50 (EGFR kinase): 23.4 nM

SMILES: Cc1cc(Nc2ncnc3ccc(NC(=O)/C=C/[C@H]4CCCN4C)cc23)ccc1Oc1cnn2cnnc2c1 [Final product of Embodiment 29, (R,E)-N-(4-((4-([1,2,4]triazolo[4,3-b]pyridazin-7-yloxy)-3-methylphenyl)amino)quinazolin-6-yl)-3-(1-methylpyrrolidin-2-yl) acrylamide]
- IC50 (ErbB2 kinase): 15.2 nM
- IC50 [1]: 60.4 nM
- IC50 [2]: 46.6 nM
- IC50 (EGFR kinase): 20.5 nM

SMILES: Cc1cc(Nc2c(C#N)cnc3ccc(NC(=O)/C=C/[C@H]4CCCN4C)cc23)ccc1Oc1cnc2c(cnn2C)c1 [Final product of Embodiment 31]
- IC50 (ErbB2 kinase): 220 nM
- IC50 [1]: 66.5 nM
- IC50 [2]: 76 nM
- IC50 (EGFR kinase): 65.2 nM

SMILES: C=CC(=O)N1CCC[C@@H](Nc2ccc3ncnc(Nc4ccc(Oc5cc6nncn6cn5)c(C)c4)c3c2)C1 [Final product of Embodiment 7, (R)-1-(3-((4-((4-([1,2,4]triazolo[4,3-c]pyrimidin-7-yloxy)-3-methylphenyl)amino)quinazolin-6-yl)amino)piperidin-1-yl)propan-2-en-1-one]
- IC50 (ErbB2 kinase): 0.851 nM
- IC50 [1]: 65.5 nM
- IC50 [2]: 49.5 nM
- IC50 (EGFR kinase): 7.09 nM

SMILES: Cc1cc(Nc2ncnc3ccc(/C=C/C(=O)N(C)C)cc23)ccc1Oc1cc2nncn2cn1 [Final product of Embodiment 15, (E)-3-(4-((4-([1,2,4]triazolo[4,3-c]pyrimidin-7-yloxy)-3-methylphenyl)amino)quinazolin-6-yl)-N,N-dimethylacrylamide]
- IC50 (ErbB2 kinase): 17.5 nM
- IC50 [1]: 301 nM
- IC50 [2]: 162 nM
- IC50 (EGFR kinase): 156 nM

SMILES: Cc1cc(Nc2ncnc3ccc(NC(=O)C=CC4COCCN4)cc23)ccc1Oc1cc2nncn2cn1 (stereo in doubt) [Final product of Embodiment 28, (E)-N-(4-((4-([1,2,4]triazolo[4,3-c]pyrimidin-7-yloxy)-3-methylphenyl)amino)quinazolin-6-yl)-3-(morpholin-3-yl)acrylamide]
- IC50 (ErbB2 kinase): 3.25 nM
- IC50 [1]: 33.4 nM
- IC50 [2]: 11 nM
- IC50 (EGFR kinase): 5.29 nM

SMILES: Cc1cc(Nc2ncnc3ccc(NC(=O)/C=C/[C@H]4CCCN4C)cc23)ccc1Oc1cnc2ccnn2c1
- IC50 (ErbB2 kinase): 1.09 nM
- IC50 [1]: 1.6 nM
- IC50 [2]: 2.65 nM
- IC50 (EGFR kinase): 0.757 nM

SMILES: C=CC(=O)Nc1ccc2ncc(C#N)c(Nc3ccc(Oc4cc5nncn5cn4)c(C)c3)c2c1 [Final product of Embodiment 9, N-(4-((4-([1,2,4]triazolo[4,3-c]pyrimidin-7-yloxy)-3-methylphenyl)amino)-3-cyanoquinolin-6-yl)acrylamide]
- IC50 (ErbB2 kinase): 7.98 nM
- IC50 [1]: 18.8 nM
- IC50 [2]: 9.62 nM
- IC50 (EGFR kinase): 13.8 nM
